Reference: patent publication US12403121B2, “Anticancer rocaglamide derivatives” (priority 2018, dated 2025)

How the values were obtained:
[1] = test system: Sch10545 Nf2−/− schwannoma cells; assay: 3-day resazurin cell proliferation assay, Sch10545 schwannoma cells; assay type: cell-based, mouse; conditions: Mus musculus, 72 h, read-out: IC50 (nM) Sch10545 Nf2−/− schwannoma cells
Protocol: (§1) The human MPNST cell lines, ST8814, STS26T, S462, T265, and luciferase-expressing ST8814-Luc, the human NF2-deficient meningioma cell line Ben-Men-1, the NJ2 mouse schwannoma cell line Sch10545, and primary human Schwann cells were propagated as previously described. Oblinger et al., Neuro-Oncol., 18:1265-1277 (2016). The Ewing sarcoma cell line A673 and the osteosarcoma cell lines, 143B and MG-63, were grown in Dulbecco's Modified Eagle's (DME) medium (Millipore-Sigma) supplemented with 10% fetal bovine serum (FBS; Atlanta Biological). The silvestrol-sensitive 697 and silvestrol-resistant 697-R pre-B acute lymphoblastic leukemia cells (Gupta et al., AAPS J., 13:357-364 (2011)), the Ewing sarcoma cell line TC32, the osteosarcoma cell lines, Saos2 and OS17, and the rhabdomyosarcoma cell line RD were cultivated in RPMI 1640 medium (Millipore-Sigma) plus 10% FBS.
(§2) Actively-growing cells were seeded in 96-well plates (Sarstedt) at 2,000 cells/well for Ben-Men-1 and RD cells, 30,000 cells/well for 697 and 697-R cells, and 4,000 cells/well for all other cell lines. The following day, cells were treated with various concentrations of each compound or and 0.05% of DMSO as the control for six days for MG-63 cells or three days for all remaining cell lines. Cell proliferation was assessed using resazurin assays and the IC50 value calculated. Cell cycle analysis was performed accordingly. Burns et al., Cancer Res., 73:792-803 (2013).
(§3) To search for compounds with better drug-like properties, the inventors conducted a side-by-side comparison of ten rocaglates lacking the dioxanyl ring with silvestrol for growth-inhibitory activity in a panel of MPNST, schwannoma, and meningioma cell lines, which they had previously shown to be sensitive to the antiproliferative action of silvestrol. […] The average IC50 value of each rocaglate was determined by 3-day resazurin proliferation assays. […] Further structure and activity comparison discerned some positions on the cyclopenta[b]benzofuran scaffold that affected the antiproliferative activity of rocaglates.

[2] = test system: Ben-Men-1 NF2−/− meningioma cells; assay: 3-day resazurin cell proliferation assay, Ben-Men-1 meningioma cells; assay type: cell-based, human; conditions: Homo sapiens, 72 h, read-out: IC50 (nM) Ben-Men-1 NF2−/− meningioma cells
Protocol: as §1, §2, §3

[3] = test system: STS26T NF1+/+ MPNST cells; assay: 3-day resazurin cell proliferation assay, STS26T MPNST cells; assay type: cell-based, human; conditions: Homo sapiens, STS-26T, 72 h, read-out: IC50 (nM) STS26T NF1+/+ MPNST cells
Protocol: as §1, §2, §3

[4] = test system: ST8814 NF1−/− MPNST cells; assay: 3-day resazurin cell proliferation assay, ST8814 MPNST cells; assay type: cell-based, human; conditions: Homo sapiens, ST88-14, 72 h, read-out: IC50 (nM) ST8814 NF1−/− MPNST cells
Protocol: as §1, §2, §3

[5] = test system: 697-R leukemic cells (overexpress MDR1/Pgp); assay: Cell proliferation, MDR1-overexpressing silvestrol-resistant 697-R leukemic cells; assay type: cell-based; conditions: MDR1, 72 h, read-out: IC50 in 697-R cells
Protocol: (§4) FIGS. 3A-3C provide graphs showing that, unlike silvestrol, DDR and Roe inhibits proliferation of MDR1-overexpressing 697-R leukemic cells at IC50 values similar to parental silvestrol-sensitive 697 cells. Cell proliferation was measured on 697-R and parental 697 pre-B leukemia cells treated for 3 days with various concentrations of silvestrol (A), DDR (B), and Roc (C). Each treatment was performed in six replicates, and each experiment was repeated twice. Shown are representative dose-response growth inhibition curves from experiments for all three drugs that were run in parallel. The IC50 values for individual growth curves are shown in the graph insets.
(§5) The human MPNST cell lines, ST8814, STS26T, S462, T265, and luciferase-expressing ST8814-Luc, the human NF2-deficient meningioma cell line Ben-Men-1, the NJ2 mouse schwannoma cell line Sch10545, and primary human Schwann cells were propagated as previously described. Oblinger et al., Neuro-Oncol., 18:1265-1277 (2016). […]
(§6) Actively-growing cells were seeded in 96-well plates (Sarstedt) at 2,000 cells/well for Ben-Men-1 and RD cells, 30,000 cells/well for 697 and 697-R cells, and 4,000 cells/well for all other cell lines. […] Cell proliferation was assessed using resazurin assays and the IC50 value calculated. […]

[6] = test system: 697 pre-B leukemia cells; assay: Cell proliferation, parental silvestrol-sensitive 697 leukemic cells; assay type: cell-based; conditions: 72 h, 3 days treatment
Protocol: as §4, §5, §6

[7] = Kinghorn et al. 2016 and NCI Developmental Therapeutics Program study, same conditions; cited from earlier work
[8] = Saradhi et al. 2011; cited from earlier work
[9] = biological target: multidrug resistance 1 (MDR1) transporter (Homo sapiens, UniProt P08183); conditions: cited from earlier work

In the case of COC(=O)[C@H]1[C@@H](O)[C@@]2(O)c3c(OC)cc(O[C@@H]4O[C@@H]([C@H](O)CO)CO[C@H]4OC)cc3O[C@@]2(c2ccc(OC)cc2)[C@@H]1c1ccccc1 [Silvestrol, reference compound], the IC50 [1] is reported as 70 nM, the IC50 [2] is reported as 10 nM and the IC50 [3] is reported as 10 nM. It also gave an IC50 [4] of 40 nM, an IC50 [5] of 0.026 µM and an IC50 [6] of 0.0035 µM. The “pulmonary toxicity in dogs” value [7] was “unexpected pulmonary toxicity”, the oral bioavailability [8] was “less than 2%” and the “substrate for the MDR1 transporter” value [9] was “substrate”.
